Biological target: T1, ORP2A (His-ORP2A; ORP2A-His) (Arabidopsis thaliana, UniProt Q940Y1)
T1 construct: full-length, His6 tag kept (N-terminal in pET16b; also ORP2A-His), E. coli BL21
T1 sequence (Q940Y1 1-721): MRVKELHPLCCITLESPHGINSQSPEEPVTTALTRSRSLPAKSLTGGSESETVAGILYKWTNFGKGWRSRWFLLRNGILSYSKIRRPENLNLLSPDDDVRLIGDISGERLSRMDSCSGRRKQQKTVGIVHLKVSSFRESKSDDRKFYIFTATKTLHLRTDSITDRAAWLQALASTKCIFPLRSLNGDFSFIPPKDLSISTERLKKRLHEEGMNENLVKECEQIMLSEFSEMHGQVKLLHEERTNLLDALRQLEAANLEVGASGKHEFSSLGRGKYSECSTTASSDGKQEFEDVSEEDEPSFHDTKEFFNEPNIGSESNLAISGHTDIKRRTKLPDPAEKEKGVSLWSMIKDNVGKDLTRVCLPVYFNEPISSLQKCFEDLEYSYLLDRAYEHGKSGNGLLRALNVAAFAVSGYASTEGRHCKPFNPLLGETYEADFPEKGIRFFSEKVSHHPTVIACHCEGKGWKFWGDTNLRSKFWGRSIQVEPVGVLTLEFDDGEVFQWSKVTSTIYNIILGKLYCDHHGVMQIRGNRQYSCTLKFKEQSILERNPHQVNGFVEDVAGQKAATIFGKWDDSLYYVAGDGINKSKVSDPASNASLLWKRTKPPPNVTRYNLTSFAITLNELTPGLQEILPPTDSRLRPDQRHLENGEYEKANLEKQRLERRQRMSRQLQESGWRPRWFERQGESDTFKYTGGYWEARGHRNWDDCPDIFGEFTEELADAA
Test: protein-lipid overlay (fat blot), anti-His immunoblot
Assay type: binding
Details: 15 μg sterol spotted on nitrocellulose; overnight incubation in purified protein

| Structure (SMILES) | protein-lipid overlay (fat blot), anti-His immunoblot |
| --- | --- |
| CC(C)[C@H](C)CC[C@@H](C)[C@H]1CC[C@H]2[C@@H]3CC=C4C[C@@H](O)CC[C@]4(C)[C@H]3CC[C@]12C [campesterol] | recombinant ORP2A-His shows that the protein interacts with β-sitosterol, stigmasterol and campesterol |
| CC[C@H](/C=C/[C@@H](C)[C@H]1CC[C@H]2[C@@H]3CC=C4C[C@@H](O)CC[C@]4(C)[C@H]3CC[C@]12C)C(C)C [stigmasterol] | recombinant ORP2A-His shows that the protein interacts with β-sitosterol, stigmasterol and campesterol |
| CC[C@H](CC[C@@H](C)[C@H]1CC[C@H]2[C@@H]3CC=C4C[C@@H](O)CC[C@]4(C)[C@H]3CC[C@]12C)C(C)C [β-sitosterol] | recombinant ORP2A-His shows that the protein interacts with β-sitosterol, stigmasterol and campesterol |

— PMC11255254, “ER-associated VAP27-1 and VAP27-3 proteins functionally link the lipid-binding ORP2A at the ER-chloroplast contact sites” (Nature Communications, 2024)
